Measurements reported in paper PMC8691714 (Cancer Research Communications, 2021).

Tests used:
[1] = In vivo pharmacokinetic study in mice, intravenous ibrutinib (plasma); settings: for AUC(0-t) / Cmax: female, FVB, mouse, plasma, iv, 1 mg/kg, ibrutinib 1 mg/kg IV, mean (SD); for AUC(0-t): Ibrutinib AUC(0-last); for Cmax: Ibrutinib Cmax
Protocol: (§1) Experiments were performed with male and female mice from inbred wild-type strains (FVB, C57BL/6, DBA) or with age- and sex-matched genetically engineered mice with a deficiency of the Cyp3a locus [(8 genes; FVB.129P2-Cyp3a13^tm1Ahs Del (5Cyp3a57-Cyp3a59)1Ahs); ref. [16]; CYP3A^−/−], a deficiency of the intestinal transporter OATP2B1 (ref. [17]; OATP2B1 ^−/−), or the hepatic transporter OATP1B2 (ref. [18]; OATP1B2 ^−/−). […] The studies were approved by the University Laboratory Animal Resources Animal Care and Use Committee at The Ohio State University (Columbus, OH). […] For in vivo studies, drugs were prepared in standard vehicles ([19, 20]). Details regarding the preparation of drugs are provided in the Supplementary Methods.
(§2) Pharmacokinetic studies were performed as described previously ([21]). Further details are provided in the Supplementary Methods.
(§3) The lower limit of quantification was 5 ng/mL, using 5-μL sample volumes. Details regarding the analytic method are provided in the Supplementary Methods.
(§4) Ketoconazole was prepared for oral administration as a 10-mg/mL suspension in PEG400, and cobicistat as a 6-mg/mL suspension in corn oil.
(§5) Pharmacokinetic studies were performed as previously described.

[2] = design: method as in earlier work; settings: unbound drug in the plasma; PBPK model parameter; ref [17, 18] and Drugbank; cited from earlier work
[3] = In vivo pharmacokinetic study in mice, oral ibrutinib (plasma, LC-MS/MS); settings: for AUC(0-t) / Cmax / bioavailability: plasma, po; for AUC(0-t): Ibrutinib AUC(0-last); for Cmax: Ibrutinib Cmax; for increase in ibrutinib AUC: male FVB wild-type mice; for systemic levels of ibrutinib: ibrutinib 10 mg/kg orally
Protocol: as §1, §2, §3, §4, §5
The analytical equipment consisted of a Vanquish UHPLC system, a TSQ Quantum Ultra triple quadrupole mass spectrometer from Thermo Fisher Scientific, and Thermo Trace Finder General Quan system software (version 3.3). An Accucore Vanquish C18 column (100 × 2.1 mm, dp = 1.5 μm; Thermo Fisher Scientific) was protected by a corresponding XBridgeBEH C18, 5-μm guard column. The injection volume of sample was 5.0 μL. The temperature of the autosampler rack was 4 °C, and the temperature of the column was 40 °C. Mobile phase A consisted of water with 0.1% (v/v) formic acid and mobile phase B consisted of acetonitrile: methanol (1:3) with 0.1% (v/v) formic acid. The total run time was 5 min. The mobile phase was delivered at a flow rate of 0.4 mL/min, and the optimized gradient contained time-varying amounts of mobile phase B, as follows: 0-0.5 min, 10% B; 0.5-1.5 min, 95% B; 1.5-2.9 min, 95% B; 2.9-3.0 min, 10% B; and 3.0-5.0 min, 10% B. The mass spectrometric assay settings included a positive voltage applied to the ESI capillary of 3500 V, a capillary temperature of 342 °C, and a vaporizer temperature of 358 °C. Argon was used a collision gas at a pressure of 1.5 mTorr. […] For sample extraction by protein precipitation, 5 µL of plasma, 5 µL of microsomal suspension, or 10 µL of homogenized tissue were added to a tube containing 60 µL of internal standard solution and 20 µL of methanol. Samples were then vortex-mixed, centrifuged at 13,000 rpm for 9.5 min, and supernatants collected and stored frozen until analysis. […] The lower limit of quantification was 5 ng/mL, using 5-µL sample volumes.

[4] = design: method as in earlier work; settings: acid dissociation constant; PBPK model parameter; ref [17, 18] and Drugbank; cited from earlier work
[5] = population PK model estimate, mice
[6] = female CYP3A(-/-) mice, co-treatment cobicistat
[7] = female CYP3A(-/-) mice, co-treatment corn oil
[8] = female wild-type FVB mice, co-treatment cobicistat
[9] = female wild-type FVB mice, co-treatment corn oil
[10] = female, C57BL/6, mouse, 10 mg/kg, female OATP2B1(-/-) mice, ibrutinib 10 mg/kg PO, no co-treatment, mean (SD)
[11] = female, C57BL/6, mouse, 10 mg/kg, female wild-type C57BL/6 mice, ibrutinib 10 mg/kg PO, no co-treatment, mean (SD)
[12] = female, DBA, mouse, 10 mg/kg, female OATP1B2(-/-) mice, ibrutinib 10 mg/kg PO, no co-treatment, mean (SD)
[13] = female, DBA, mouse, 10 mg/kg, female wild-type DBA mice, ibrutinib 10 mg/kg PO, no co-treatment, mean (SD)
[14] = female, FVB, mouse, 4 mg/kg, female wild-type FVB mice, ibrutinib 4 mg/kg oral, cotreatment cobicistat 30 mg/kg, mean (SE)
[15] = female, FVB, mouse, 10 mg/kg, female CYP3A-/- mice, ibrutinib 10 mg/kg oral, cotreatment cobicistat 30 mg/kg, mean (SE)
[16] = female, FVB, mouse, 10 mg/kg, female CYP3A-/- mice, ibrutinib 10 mg/kg oral, cotreatment corn oil, mean (SE)
[17] = female, FVB, mouse, 10 mg/kg, female CYP3A-/- mice, ibrutinib 10 mg/kg oral, no cotreatment, mean (SE)
[18] = female, FVB, mouse, 10 mg/kg, female wild-type FVB mice, ibrutinib 10 mg/kg oral single dose, cotreatment cobicistat 30 mg/kg, mean (SE)
[19] = female, FVB, mouse, 10 mg/kg, female wild-type FVB mice, ibrutinib 10 mg/kg oral single dose, cotreatment corn oil, mean (SE)
[20] = female, FVB, mouse, 10 mg/kg, female wild-type FVB mice, ibrutinib 10 mg/kg oral, cotreatment PEG400, mean (SE)
[21] = female, FVB, mouse, 10 mg/kg, female wild-type FVB mice, ibrutinib 10 mg/kg oral, cotreatment cobicistat 30 mg/kg, steady-state, mean (SE)
[22] = female, FVB, mouse, 10 mg/kg, female wild-type FVB mice, ibrutinib 10 mg/kg oral, cotreatment corn oil, steady-state, mean (SE)
[23] = female, FVB, mouse, 10 mg/kg, female wild-type FVB mice, ibrutinib 10 mg/kg oral, cotreatment ketoconazole 50 mg/kg, mean (SE)
[24] = female, FVB, mouse, 10 mg/kg, female wild-type FVB mice, ibrutinib 10 mg/kg oral, no cotreatment, mean (SE)
[25] = female, FVB, mouse, 30 mg/kg, female wild-type FVB mice, ibrutinib 30 mg/kg oral, no cotreatment, mean (SE)
[26] = male, C57BL/6, mouse, 10 mg/kg, male OATP2B1(-/-) mice, ibrutinib 10 mg/kg PO, no co-treatment, mean (SD)
[27] = male, C57BL/6, mouse, 10 mg/kg, male wild-type C57BL/6 mice, ibrutinib 10 mg/kg PO, no co-treatment, mean (SD)
[28] = male, FVB, mouse, 10 mg/kg, male wild-type FVB mice, ibrutinib 10 mg/kg PO, co-treatment No Vehicle (cobicistat experiment), mean (SD)
[29] = male, FVB, mouse, 10 mg/kg, male wild-type FVB mice, ibrutinib 10 mg/kg PO, co-treatment None (ketoconazole experiment), mean (SD)
[30] = male, FVB, mouse, 10 mg/kg, male wild-type FVB mice, ibrutinib 10 mg/kg PO, co-treatment PEG400, mean (SD)
[31] = male, FVB, mouse, 10 mg/kg, male wild-type FVB mice, ibrutinib 10 mg/kg PO, co-treatment cobicistat, mean (SD)
[32] = male, FVB, mouse, 10 mg/kg, male wild-type FVB mice, ibrutinib 10 mg/kg PO, co-treatment corn oil, mean (SD)
[33] = male, FVB, mouse, 10 mg/kg, male wild-type FVB mice, ibrutinib 10 mg/kg PO, co-treatment ketoconazole, mean (SD)

AUC(0-t) [1, 6]: 895 ng·h/mL
AUC(0-t) [1, 7]: 1170 ng·h/mL
AUC(0-t) [1, 8]: 1010 ng·h/mL
AUC(0-t) [1, 9]: 521 ng·h/mL
Cmax [1, 6]: 1440 ng/mL
Cmax [1, 7]: 1860 ng/mL
Cmax [1, 8]: 1540 ng/mL
Cmax [1, 9]: 1410 ng/mL
increase in ibrutinib exposure ([1]; intravenous ibrutinib, CYP3A deficiency vs wild-type): 2 fold
effect of cobicistat on exposure to ibrutinib ([1]; intravenous ibrutinib, CYP3A-/- mice): did not further increase exposure
increase in ibrutinib exposure ([1]; intravenous ibrutinib, wild-type mice, oral cobicistat pretreatment vs vehicle): 2 fold
ibrutinib AUC increase ([3]; CYP3A-/- mice compared with wild-type mice, oral ibrutinib): about 8 fold
pharmacokinetic profile of ibrutinib with vs without cobicistat ([3]; CYP3A-/- mice, oral ibrutinib, P > 0.05): similar
increase in exposure to ibrutinib ([3]; female wild-type mice, oral ibrutinib 10 mg/kg 30 minutes after oral ketoconazole 50 mg/kg vs vehicle): about 11 fold
AUC(0-t) [3, 10]: 1750 ng·h/mL
AUC(0-t) [3, 11]: 1450 ng·h/mL
Cmax [3, 10]: 1250 ng/mL
Cmax [3, 11]: 1420 ng/mL
AUC(0-t) [3, 12]: 2100 ng·h/mL
AUC(0-t) [3, 13]: 2720 ng·h/mL
Cmax [3, 12]: 2170 ng/mL
Cmax [3, 13]: 1960 ng/mL
AUC(0-t) [3, 14]: 1200 ng·h/mL
Cmax [3, 14]: 589 ng/mL
bioavailability ([3]; female, FVB, mouse, 4 mg/kg, female wild-type FVB mice, ibrutinib 4 mg/kg oral, cotreatment cobicistat 30 mg/kg): 58%
AUC(0-t) [3, 15]: 1660 ng·h/mL
AUC(0-t) [3, 16]: 1410 ng·h/mL
AUC(0-t) [3, 17]: 2350 ng·h/mL
AUC(0-t) [3, 18]: 2600 ng·h/mL
AUC(0-t) [3, 19]: 284 ng·h/mL
AUC(0-t) [3, 20]: 768 ng·h/mL
AUC(0-t) [3, 21]: 2250 ng·h/mL
AUC(0-t) [3, 22]: 459 ng·h/mL
AUC(0-t) [3, 23]: 8320 ng·h/mL
AUC(0-t) [3, 24]: 301 ng·h/mL
Cmax [3, 15]: 845 ng/mL
Cmax [3, 16]: 1390 ng/mL
Cmax [3, 17]: 1760 ng/mL
Cmax [3, 18]: 1440 ng/mL
Cmax [3, 19]: 292 ng/mL
Cmax [3, 20]: 663 ng/mL
Cmax [3, 21]: 925 ng/mL
Cmax [3, 22]: 394 ng/mL
Cmax [3, 23]: 3100 ng/mL
Cmax [3, 24]: 430 ng/mL
bioavailability ([3]; female, FVB, mouse, 10 mg/kg, female CYP3A-/- mice, ibrutinib 10 mg/kg oral, cotreatment cobicistat 30 mg/kg): 32%
bioavailability ([3]; female, FVB, mouse, 10 mg/kg, female CYP3A-/- mice, ibrutinib 10 mg/kg oral, cotreatment corn oil): 27%
bioavailability ([3]; female, FVB, mouse, 10 mg/kg, female CYP3A-/- mice, ibrutinib 10 mg/kg oral, no cotreatment): 45%
bioavailability ([3]; female, FVB, mouse, 10 mg/kg, female wild-type FVB mice, ibrutinib 10 mg/kg oral single dose, cotreatment cobicistat 30 mg/kg): 50%
bioavailability ([3]; female, FVB, mouse, 10 mg/kg, female wild-type FVB mice, ibrutinib 10 mg/kg oral single dose, cotreatment corn oil): 5.5%
bioavailability ([3]; female, FVB, mouse, 10 mg/kg, female wild-type FVB mice, ibrutinib 10 mg/kg oral, cotreatment cobicistat 30 mg/kg, steady-state): 43%
bioavailability ([3]; female, FVB, mouse, 10 mg/kg, female wild-type FVB mice, ibrutinib 10 mg/kg oral, cotreatment corn oil, steady-state): 8.8%
bioavailability ([3]; female, FVB, mouse, 10 mg/kg, female wild-type FVB mice, ibrutinib 10 mg/kg oral, no cotreatment): 5.8%
AUC(0-t) [3, 25]: 1710 ng·h/mL
Cmax [3, 25]: 554 ng/mL
bioavailability ([3]; female, FVB, mouse, 30 mg/kg, female wild-type FVB mice, ibrutinib 30 mg/kg oral, no cotreatment): 11%
increase in ibrutinib AUC ([3]; cobicistat): 7 fold
increase in ibrutinib AUC ([3]; ketoconazole): 10 fold
AUC(0-t) [3, 26]: 1770 ng·h/mL
AUC(0-t) [3, 27]: 1390 ng·h/mL
Cmax [3, 26]: 1630 ng/mL
Cmax [3, 27]: 1380 ng/mL
AUC(0-t) [3, 28]: 520 ng·h/mL
AUC(0-t) [3, 29]: 429 ng·h/mL
AUC(0-t) [3, 30]: 636 ng·h/mL
AUC(0-t) [3, 31]: 4340 ng·h/mL
AUC(0-t) [3, 32]: 663 ng·h/mL
AUC(0-t) [3, 33]: 6640 ng·h/mL
Cmax [3, 28]: 360 ng/mL
Cmax [3, 29]: 404 ng/mL
Cmax [3, 30]: 348 ng/mL
Cmax [3, 31]: 1360 ng/mL
Cmax [3, 32]: 243 ng/mL
Cmax [3, 33]: 1260 ng/mL
systemic levels of ibrutinib ([3]; mice lacking OATP1B2 vs wild-type): not altered
systemic levels of ibrutinib ([3]; mice lacking OATP2B1 vs wild-type): not altered
increase in exposure to ibrutinib ([3]; wild-type mice, oral ibrutinib 10 mg/kg after cobicistat 30 mg/kg, single dose or steady-state (day 5)): about 9 fold
IIV Ka ([5]; inter-individual variability): 0.209
IIV Lag ([5]; inter-individual variability): 0.0264
IIV Vc ([5]; inter-individual variability): 0.167
IIV Vp ([5]; inter-individual variability): 0.295
Ka (absorption rate constant) [5]: 0.340 h⁻¹
Lag (lag time) [5]: 0.0324 h
RV IBU ([5]; residual variability): 0.425
Compound: C=CC(=O)N1CCC[C@@H](n2nc(-c3ccc(Oc4ccccc4)cc3)c3c(N)ncnc32)C1 [Ibrutinib]
fu, plasma [2]: 0.027
pKa [4]: 3.78
